Where two headings read alike, the source gives them in different places.
How the values were obtained:
[1] = system: beet armyworm (BAW; Spodoptera exigua: Lepidoptera); assay: 96-well microtiter plate-based high throughput (HTS) bioassay on beet armyworm (BAW HTS); assay type: in vivo; details: 144 h, read-out: BAW HTS
Description: (§1) Bioassays on beet armyworm (BAW; Spodoptera exigua: Lepidoptera) were conducted using either a 96-well microtiter plate-based high throughput (HTS) bioassay or a 128-well diet tray assay. The HTS assay is based on a modification of Lewer et al. J. Nat. Prod. 2006, 69, 1506. BAW eggs were placed on top of artificial diet (100 μL) in each well of a 96-well microtiter plate. The diet was pretreated with test compounds (12 μg dissolved in 30 μL of DMSO-acetone-H2O mixture) layered on top of the diet using a liquid handling system and then allowed to dry for several hours. Infested plates were then covered with a layer of sterile cotton batting and the plate lid, and then held in the dark at 29° C. Mortality was recorded at 6 days post-treatment. Each plate had six replicates. The percent mortality was calculated from the average of the six replicates. In the case of the 128-well diet assay, three to five second instar BAW larvae were placed in each well (3 mL) of the diet tray that had been previously filled with 1 mL of artificial diet to which 50 ug/cm^2 of the test compound (dissolved in 50 μL of 90:10 acetone-water mixture) had been applied (to each of eight wells) and then allowed to dry. Trays were covered with a clear self-adhesive cover, and held at 25° C., 14:10 light-dark for six days. Percent mortality was recorded for the larvae in each well; activity in the eight wells was then averaged. In Table 4, under both the BAW HTS and BAW 50 headings, an “A” means that the compound was tested and at least 50 percent mortality was observed whereas, “B” means that either (1) the compound was tested and less than 50 percent mortality was observed or (2) the compound was not tested.

[2] = system: beet armyworm (BAW; Spodoptera exigua: Lepidoptera); assay: 128-well diet tray assay on beet armyworm (BAW 50); assay type: in vivo; details: 144 h, read-out: BAW 50
Description: as §1

[3] = percent mortality, 96-well HTS, 12 μg test compound on diet, BAW eggs, 6 days post-treatment, 29° C., average of six replicates
[4] = percent mortality, 128-well diet assay, 50 ug/cm^2 of test compound on diet, second instar BAW larvae, six days, 25° C., average of eight wells

SMILES | pest or weed control at 12 µg/well, 12 µg/well [1, 3] [%] | pest or weed control at 50 µg/cm2, 50 µg/cm2 [2, 4] [%] | pest or weed control at 12 µg/well, 12 µg/well [1] [%] | pest or weed control at 50 µg/cm2, 50 µg/cm2 [2] [%]
CCCO[C@@H]1[C@@H](OC)[C@H](C)O[C@@H](O/N=C/c2ccc(/C=C/c3ccc(OC(F)(F)F)cc3)cc2)[C@@H]1OC [Compound 1, 4-[(E)-2-(4-trifluoromethoxyphenyl)-vinyl]-benzaldehyde O-((2S,3R,4R,5S,6S)-3,5-dimethoxy-6-methyl-4-propoxy-tetrahydropyran-2-yl)-oxime] | > 50 | > 50 | – | –
CCO[C@@H]1[C@@H](OC)[C@H](C)O[C@@H](O/N=C/c2ccc(/C=C/c3ccc(C(F)(F)F)cc3)cc2)[C@@H]1OC [Compound 2, 4-[(E)-2-(4-Trifluoromethylphenyl)-vinyl]-benzaldehyde O-((2S,3R,4R,5S,6S)-4-ethoxy-3,5-dimethoxy-6-methyl-tetrahydropyran-2-yl)-oxime] | > 50 | > 50 | – | –
CCO[C@@H]1[C@@H](OC)[C@H](C)O[C@@H](O/N=C/c2ccc(/C=C/c3ccc(C(F)(F)C(F)(F)OC(F)(F)C(F)(F)C(F)(F)F)cc3)cc2)[C@@H]1OC [Compound 3] | < 50 | < 50 | – | –
CCO[C@@H]1[C@@H](OC)[C@H](C)O[C@@H](O/N=C/c2ccc(/C=C/c3ccc(C(C)=O)cc3)cc2)[C@@H]1OC [Compound 4, 4-[(E)-2-(4-Acetyl-phenyl)-vinyl]-benzaldehyde O-((2S,3R,4R,5S,6S)-4-ethoxy-3,5-dimethoxy-6-methyl-tetrahydropyran-2-yl)-oxime] | < 50 | < 50 | – | –
CCO[C@@H]1[C@@H](OC)[C@H](C)O[C@@H](O/N=C/c2ccc(/C=C/c3ccc(OC(F)(F)F)cc3)cc2)[C@@H]1OC [Compound 5, 4-[(E)-2-(4-Trifluoromethoxyphenyl)-vinyl]-benzaldehyde O-((2S,3R,4R,5S,6S)-4-ethoxy-3,5-dimethoxy-6-methyl-tetrahydropyran-2-yl)-oxime] | < 50 | > 50 | – | –
CCO[C@@H]1[C@@H](OC)[C@H](C)O[C@@H](O/N=C/c2ccc(/C=C/c3cccc(C(F)(F)F)c3)cc2)[C@@H]1OC [Compound 6, 4-[(E)-2-(3-Trifluoromethylphenyl)-vinyl]-benzaldehyde O-((2S,3R,4R,5S,6S)-4-ethoxy-3,5-dimethoxy-6-methyl-tetrahydropyran-2-yl)-oxime] | > 50 | > 50 | – | –
CCO[C@@H]1[C@@H](OC)[C@H](C)O[C@@H](O/N=C/c2ccc(/C=C/c3ccc(OC(F)(F)C(F)(F)F)cc3)cc2)[C@@H]1OC [Compound 7, 4-[(E)-2-(4-Pentafluoroethyloxyphenyl)-vinyl]-benzaldehyde O-((2S,3R,4R,5S,6S)-4-ethoxy-3,5-dimethoxy-6-methyl-tetrahydropyran-2-yl)-oxime] | < 50 | > 50 | – | –
CO[C@@H]1[C@@H](OC)[C@H](C)O[C@@H](O/N=C/c2ccc(/C=C/c3ccc(OC(F)(F)F)cc3)cc2)[C@@H]1OC [Compound 8] | > 50 | > 50 | – | –
CO[C@@H]1[C@@H](OC)[C@H](C)O[C@@H](O/N=C/c2ccc(/C=C/c3cccc(C(F)(F)F)c3)cc2)[C@@H]1OC [Compound 9, 4-[(E)-2-(3-Trifluoromethylphenyl)-vinyl]-benzaldehyde O-((2S,3R,4R,5S,6S)-3,4,5-trimethoxy-6-methyl-tetrahydropyran-2-yl)-oxime] | < 50 | > 50 | – | –
CCCO[C@@H]1[C@@H](OC)[C@H](C)O[C@@H](O/N=C/c2ccc(/C=C/c3ccc(C(F)(F)F)cc3)cc2)[C@@H]1OC [Compound 10, 4-[(E)-2-(4-Trifluoromethylphenyl)-vinyl]-benzaldehyde O-((2S,3R,4R,5S,6S)-4-propoxy-3,5-dimethoxy-6-methyl-tetrahydropyran-2-yl)-oxime] | > 50 | > 50 | – | –
CCO[C@@H]1[C@@H](OC)[C@H](C)O[C@@H](O/N=C/c2ccc(/C=C/c3ccc(C(O)(C(F)(F)F)C(F)(F)F)cc3)cc2)[C@@H]1OC [Compound 11, 4-{(E)-2-[4-(2,2,2-Trifluoro-1-hydroxy-1-trifluoromethyl-ethyl)-phenyl]-vinyl}-benzaldehyde O-((2S,3R,4R,5S,6S)-4-ethoxy-3,5-dimethoxy-6-methyl-tetrahydropyran-2-yl)-oxime] | > 50 | < 50 | – | –
CO[C@@H]1[C@@H](OC)[C@H](C)O[C@@H](O/N=C/c2ccc(/C=C/c3ccc(C(F)(F)F)cc3)cc2)[C@@H]1OC [Compound 12, 4-[(E)-2-(4-Trifluoromethylphenyl)-vinyl]-benzaldehyde O-((2S,3R,4R,5S,6S)-3,4,5-trimethoxy-6-methyl-tetrahydropyran-2-yl)-oxime] | > 50 | > 50 | – | –
CCO[C@@H]1[C@@H](OC)[C@H](C)O[C@@H](O/N=C/c2ccc(C#Cc3ccc(OC(F)(F)F)cc3)cc2)[C@@H]1OC [Compound 13, 4-(4-trifluoromethoxyphenylethynyl)-benzaldehyde O-((2S,3R,4R,5S,6S)-4-ethoxy-3,5-dimethoxy-6-methyl-tetrahydropyran-2-yl)-oxime] | > 50 | > 50 | – | –
CCO[C@@H]1[C@@H](OC)[C@H](C)O[C@@H](O/N=C/c2ccc(C#Cc3ccc(C(F)(F)F)cc3)cc2)[C@@H]1OC [Compound 14, 4-(4-Trifluoromethylphenylethynyl)-benzaldehyde O-((2S,3R,4R,5S,6S)-4-ethoxy-3,5-dimethoxy-6-methyl-tetrahydropyran-2-yl)-oxime] | > 50 | > 50 | – | –
CO[C@@H]1[C@@H](OC)[C@H](C)O[C@@H](O/N=C/c2ccc(C#Cc3ccc(C(F)(F)F)cc3)cc2)[C@@H]1OC [Compound 15, 4-(4-Trifluoromethylphenylethynyl)-benzaldehyde O-((3R,4R,5S,6S)-3,4,5-trimethoxy-6-methyl-tetrahydropyran-2-yl)-oxime] | > 50 | > 50 | – | –
CCO[C@@H]1[C@@H](OC)[C@H](C)O[C@@H](OC(=O)Nc2ccc(/C=C/c3ccc(C(F)(F)F)cc3)cc2)[C@@H]1OC [Compound 16, {4-[(E)-2-(4-trifluoromethylphenyl)-vinyl]-phenyl}-carbamic acid (2S,3R,4R,5S,6S)-4-ethoxy-3,5-dimethoxy-6-methyl-tetrahydropyran-2-yl ester] | – | – | > 50 | > 50
CCOc1ccc(/C=C/c2ccc(NC(=O)O[C@@H]3O[C@@H](C)[C@H](OC)[C@@H](OC)[C@H]3OC)cc2)cc1 [Compound 17, {4-[(E)-2-(4-Ethoxyphenyl)-vinyl]-phenyl}-carbamic acid (2S,3R,4R,5S,6S)-3,4,5-tri-methoxy-6-methyl-tetrahydropyran-2-yl ester] | – | – | < 50 | > 50
CCCO[C@@H]1[C@@H](OC)[C@H](C)O[C@@H](OC(=O)Nc2ccc(/C=C/c3ccc(OC(F)(F)C(F)(F)F)cc3)cc2)[C@@H]1OC [Compound 18, {4-[(E)-2-(4-Pentafluoroethyloxyphenyl)-vinyl]-phenyl}-carbamic acid (2S,3R,4R,5S,6S)-4-propoxy-3,5-dimethoxy-6-methyl-tetrahydropyran-2-yl ester] | – | – | < 50 | > 50
CCO[C@@H]1[C@@H](OC)[C@H](C)O[C@@H](OC(=O)Nc2ccc(/N=N/c3cccc(OC(F)(F)F)c3)cc2)[C@@H]1OC [Compound 19, [4-(3-trifluoromethoxyphenylazo)-phenyl]-carbamic acid (2S,3R,4R,5S,6S)-3,5-dimethoxy-4-ethoxy-6-methyl-tetrahydropyran-2-yl ester] | – | – | > 50 | > 50
CCO[C@@H]1[C@@H](OC)[C@H](C)O[C@@H](OC(=O)Nc2ccc(/N=N/c3ccc(OC(F)(F)F)cc3)cc2)[C@@H]1OC [Compound 20, [4-(4-Trifluoromethoxy-phenylazo)-phenyl]-carbamic acid (2S,3R,4R,5S,6S)-4-ethoxy-3,5-dimethoxy-6-methyl-tetrahydropyran-2-yl ester] | – | – | > 50 | > 50
CCO[C@@H]1[C@@H](OC)[C@H](C)O[C@@H](OC(=O)Nc2ccc(/N=N/c3ccc(C(F)(F)F)cc3)cc2)[C@@H]1OC [Compound 21, [4-(4-Trifluoromethylphenylazo)-phenyl]-carbamic acid (2S,3R,4R,5S,6S)-4-ethoxy-3,5-dimethoxy-6-methyl-tetrahydropyran-2-yl ester] | – | – | > 50 | < 50

Source: US8394774B2, “Pesticidal compositions” (Dow AgroSciences, LLC., priority 2009, dated 2013)
